Results taken from ChEMBL document CHEMBL1201862, “PubChem BioAssay data set” (2004).
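Cultured in 96-well plates, cells were exposed to test compound for 48 hours across five concentrations. GI50: concentration for 50% inhibition of growth.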 Calls of active or inactive are those of the source. Cut-off read from the data, not from the text of the source: active = GI50 up to about 1.1 µM and inactive = higher.

Columns and labels:
Test in all cases: inhibition of tumour cell growth, NCI panel, 48 h
[1] = tested on: RXF 393
[2] = tested on: ACHN
[3] = tested on: MOLT-4
[4] = tested on: SR
[5] = tested on: SF-268
[6] = tested on: DU-145
[7] = tested on: SK-OV-3
[8] = tested on: RPMI-8226
[9] = tested on: OVCAR-3
[10] = tested on: SK-MEL-5
[11] = tested on: NCI-H23
[12] = tested on: Hs-578T
[13] = tested on: MDA-MB-231
[14] = tested on: HT-29
[15] = tested on: U-251
[16] = tested on: MCF7
[17] = tested on: SW-620
[18] = tested on: LOX IMVI
[19] = tested on: NCI-H226
[20] = tested on: HOP-62
[21] = tested on: T47D
[22] = tested on: HCT-15
[23] = tested on: SNB-75
[24] = tested on: CCRF-CEM
[25] = tested on: UACC-257
[26] = tested on: NCI-H522
[27] = tested on: K562
[28] = tested on: HL-60
[29] = tested on: EKVX
[30] = tested on: TK-10
[31] = tested on: PC-3
[32] = tested on: BT-549
[33] = tested on: OVCAR-4
[34] = tested on: SNB-19
[35] = tested on: OVCAR-5
[36] = tested on: OVCAR-8
[37] = tested on: HOP-92
[38] = tested on: M14
[39] = tested on: KM12
[40] = tested on: A549
[41] = tested on: A498
[42] = tested on: SN12C
[43] = tested on: NCI-H460
[44] = tested on: SK-MEL-2
[45] = tested on: COLO 205
[46] = tested on: HCT-116
[47] = tested on: CAKI-1
[48] = tested on: HCC 2998
[49] = tested on: SF-295
[50] = tested on: SF-539
[51] = tested on: Malme-3M
[52] = tested on: MDA-MB-435
[53] = tested on: MDA-N
[54] = tested on: UO-31
[55] = tested on: UACC-62
[56] = tested on: IGROV-1
[57] = tested on: NCI/ADR-RES
[58] = tested on: SK-MEL-28
[59] = tested on: 786-0

Measured: GI50

CO/N=C\c1cc(O)c(O)c(/C=N/OC)c1
inactive: [1] 51.2 µM | [2] 29.6 µM | [3] 8.17 µM | [4] 5.83 µM | [5] 10.9 µM | [6] 39.5 µM | [7] 29.1 µM | [8] 12.5 µM | [9] 4.82 µM | [10] 55.7 µM | [11] 26.9 µM | [12] 12.6 µM | [13] 36.1 µM | [14] 40.5 µM | [15] 34.1 µM | [16] 29.3 µM | [17] 36.6 µM | [18] 41.3 µM | [19] 30.3 µM | [20] 51.4 µM | [21] 26.1 µM | [23] 87.5 µM | [24] 16 µM | [25] > 100 µM | [26] 14.1 µM | [27] 29.8 µM | [28] 3.48 µM | [29] 47.4 µM | [30] 86.7 µM | [31] 33.7 µM | [32] > 100 µM | [33] 24.9 µM | [34] 59.6 µM | [35] > 100 µM | [36] 23.4 µM | [37] 61.1 µM | [38] 33.3 µM | [39] 38.8 µM | [40] 26 µM | [41] 49.1 µM | [42] 12.8 µM | [43] 23.1 µM | [44] > 100 µM | [45] 37.9 µM | [46] 23.8 µM | [47] 23.3 µM | [48] 32.8 µM | [49] 48 µM | [50] 27 µM | [51] 52.7 µM | [52] 50.5 µM | [53] 64.4 µM | [54] 11.3 µM | [55] 38.8 µM | [56] 27.4 µM | [57] 30.6 µM | [58] > 100 µM
33.3 µM: [22]

c1cc(C[S+]2CCCC2)sc1C[S+]1CCCC1
inactive: [1] > 100 µM | [2] > 100 µM | [3] > 100 µM | [4] > 100 µM | [5] > 100 µM | [6] > 100 µM | [7] > 100 µM | [8] > 100 µM | [9] > 100 µM | [10] > 100 µM | [11] > 100 µM | [12] > 100 µM | [13] > 100 µM | [14] > 100 µM | [15] > 100 µM | [16] > 100 µM | [17] > 100 µM | [18] > 100 µM | [19] > 100 µM | [20] > 100 µM | [21] > 100 µM | [23] > 100 µM | [24] > 100 µM | [25] > 100 µM | [26] > 100 µM | [27] > 100 µM | [28] > 100 µM | [29] > 100 µM | [30] > 100 µM | [31] > 100 µM | [32] > 100 µM | [33] > 100 µM | [34] > 100 µM | [35] > 100 µM | [36] > 100 µM | [37] > 100 µM | [38] > 100 µM | [39] > 100 µM | [40] > 100 µM | [41] 39.2 µM | [42] > 100 µM | [43] > 100 µM | [45] > 100 µM | [46] > 100 µM | [47] > 100 µM | [48] > 100 µM | [59] > 100 µM | [49] > 100 µM | [50] > 100 µM | [51] > 100 µM | [52] > 100 µM | [53] > 100 µM | [54] > 100 µM | [55] > 100 µM | [56] > 100 µM | [57] > 100 µM | [58] > 10 µM
> 100 µM: [22]
